Results taken from patent US12428394B2, “2,4-disubstituted pyrimidine derivative, preparation method therefor and use thereof” (CHENGDU ZENITAR BIOMEDICAL TECHNOLOGY CO., LTD., priority 2019, dated 2025).

Assays:
FLT3 = molecular target: T1, FLT3 (Homo sapiens, UniProt P36888); assay: In vitro kinase activity experiment, FLT3; assay type: biochemical; settings: for inhibition at 0.5 µM: 40 min, inhibition rate of enzyme at 500 nM, measured by Eurofins, read-out: Kinase activity @ 500 nM (%) FLT3
T1 construct: purchased Eurofins
T1 sequence (P36888 27-993): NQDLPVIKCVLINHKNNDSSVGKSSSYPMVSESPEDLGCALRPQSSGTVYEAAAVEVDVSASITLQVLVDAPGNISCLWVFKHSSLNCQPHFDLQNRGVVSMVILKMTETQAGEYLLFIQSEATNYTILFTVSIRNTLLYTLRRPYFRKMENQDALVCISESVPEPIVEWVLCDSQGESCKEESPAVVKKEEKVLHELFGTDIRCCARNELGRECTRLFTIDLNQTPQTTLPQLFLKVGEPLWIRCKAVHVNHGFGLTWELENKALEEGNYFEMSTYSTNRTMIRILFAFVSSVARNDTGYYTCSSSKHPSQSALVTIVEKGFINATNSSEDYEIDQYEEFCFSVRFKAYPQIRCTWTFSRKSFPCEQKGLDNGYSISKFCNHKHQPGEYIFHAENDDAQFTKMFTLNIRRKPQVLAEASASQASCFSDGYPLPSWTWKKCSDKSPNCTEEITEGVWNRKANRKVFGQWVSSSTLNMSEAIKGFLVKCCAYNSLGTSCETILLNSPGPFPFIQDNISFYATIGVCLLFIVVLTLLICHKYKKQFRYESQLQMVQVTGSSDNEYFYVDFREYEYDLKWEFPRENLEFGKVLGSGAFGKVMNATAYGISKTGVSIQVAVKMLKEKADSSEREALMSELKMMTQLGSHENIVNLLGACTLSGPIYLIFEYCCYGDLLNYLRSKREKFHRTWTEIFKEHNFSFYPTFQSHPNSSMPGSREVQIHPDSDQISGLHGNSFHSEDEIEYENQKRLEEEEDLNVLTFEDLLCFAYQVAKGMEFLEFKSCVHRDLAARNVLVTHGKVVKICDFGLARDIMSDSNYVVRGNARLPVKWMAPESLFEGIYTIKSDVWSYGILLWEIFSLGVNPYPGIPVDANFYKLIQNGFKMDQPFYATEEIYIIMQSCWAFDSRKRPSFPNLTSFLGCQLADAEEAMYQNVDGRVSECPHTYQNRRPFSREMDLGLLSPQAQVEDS
Summary of the method: (§1)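 Radiometric filter-binding assay: kinase, its substrate and compound in 8 mM MOPS pH 7.0, 0.2 mM EDTA, 10 mM MnCl2, with 10 mM magnesium acetate and γ33P-ATP; MgATP started the reaction, 40 min at room temperature. Stopped with 3% phosphate, spotted on Filtermat A, washed, scintillation counted.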

[1] = system: MV4-11 cells (FLT3-ITD+/+); assay: Inhibition of cell proliferation by MTT experiment, MV4-11; assay type: cell-based, human; settings: Homo sapiens, MV4-11; MTT, 72 h; read-out: IC50 value on cell proliferation inhibition, MV4-11 FLT3-ITD+/+
Summary of the method: (§2)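 MTT assay in MV4-11, MOLM-13 (FLT3-ITD) and SET-2 (JAK2 V617F) cells at 10,000–15,000 cells/well in IMDM with 10% FBS. Cells are exposed to compound for 72 h at 37 °C, then to MTT for 1–3 h. IC50 is fitted from inhibition rates across concentrations.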

JAK1 = molecular target: T2, JAK1 (Homo sapiens, UniProt P23458); assay: In vitro kinase activity experiment, JAK1; assay type: biochemical
T2 construct: purchased Eurofins
T2 sequence (P23458 whole entry): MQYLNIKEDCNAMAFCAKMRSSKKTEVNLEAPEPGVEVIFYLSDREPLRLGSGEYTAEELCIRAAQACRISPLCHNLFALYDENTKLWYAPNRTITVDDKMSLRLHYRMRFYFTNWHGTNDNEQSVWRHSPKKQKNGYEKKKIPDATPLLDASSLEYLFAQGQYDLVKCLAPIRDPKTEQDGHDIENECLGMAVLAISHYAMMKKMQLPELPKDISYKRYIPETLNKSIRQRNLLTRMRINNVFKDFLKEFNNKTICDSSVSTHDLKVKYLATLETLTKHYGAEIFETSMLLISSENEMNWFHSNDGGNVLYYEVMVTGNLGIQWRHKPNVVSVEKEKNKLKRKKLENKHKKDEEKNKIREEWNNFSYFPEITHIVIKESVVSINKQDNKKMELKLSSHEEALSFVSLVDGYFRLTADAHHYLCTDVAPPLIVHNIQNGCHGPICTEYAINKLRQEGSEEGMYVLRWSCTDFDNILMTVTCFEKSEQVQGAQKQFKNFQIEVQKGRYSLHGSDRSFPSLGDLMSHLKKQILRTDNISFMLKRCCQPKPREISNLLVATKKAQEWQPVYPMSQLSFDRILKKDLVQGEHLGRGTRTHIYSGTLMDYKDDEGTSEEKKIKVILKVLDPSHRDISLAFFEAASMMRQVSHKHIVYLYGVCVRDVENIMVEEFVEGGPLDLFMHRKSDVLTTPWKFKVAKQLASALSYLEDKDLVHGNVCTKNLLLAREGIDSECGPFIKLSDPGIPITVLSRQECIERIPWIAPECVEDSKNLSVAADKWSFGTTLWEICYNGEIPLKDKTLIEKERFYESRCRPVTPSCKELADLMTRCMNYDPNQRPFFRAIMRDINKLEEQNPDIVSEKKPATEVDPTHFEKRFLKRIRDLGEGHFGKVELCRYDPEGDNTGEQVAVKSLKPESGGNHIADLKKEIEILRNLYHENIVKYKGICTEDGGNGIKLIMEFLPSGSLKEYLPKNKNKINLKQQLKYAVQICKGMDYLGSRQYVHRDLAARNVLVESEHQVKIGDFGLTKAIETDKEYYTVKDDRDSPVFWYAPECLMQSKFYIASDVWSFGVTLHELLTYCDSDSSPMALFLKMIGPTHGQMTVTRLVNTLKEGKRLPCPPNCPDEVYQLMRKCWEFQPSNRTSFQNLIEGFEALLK
Method: (§3) Buffer solution ([…], pH 7.0, 0.2 mm EDTA, 10 mM mncl2), kinase to be tested, substrate of kinase to be tested, 10 mM magnesium acetate and γ33P-ATP solution, and compounds with different concentrations were added to a reaction tube in turn, then MgATP was added to initiate the enzyme reaction process, and incubated at room temperature for 40 min. Then, the reaction was terminated with 5 μl of […], and 10 μl of the reaction solution was titrated onto the Filtermat A membrane, washed with 75 mM phosphate solution for three times, each time for 5 min., and then washed with methanol once. Finally, the Filtermat A membrane was dried and the scintillation count was carried out.

JAK2 = molecular target: T3, JAK2 (Homo sapiens, UniProt O60674); assay: In vitro kinase activity experiment, JAK2; assay type: biochemical; settings: for Kinase activity @ 500 nM (%) JAK2: inhibition rate of enzyme at 500 nM, measured by Eurofins
T3 construct: purchased Eurofins
T3 sequence (O60674 whole entry): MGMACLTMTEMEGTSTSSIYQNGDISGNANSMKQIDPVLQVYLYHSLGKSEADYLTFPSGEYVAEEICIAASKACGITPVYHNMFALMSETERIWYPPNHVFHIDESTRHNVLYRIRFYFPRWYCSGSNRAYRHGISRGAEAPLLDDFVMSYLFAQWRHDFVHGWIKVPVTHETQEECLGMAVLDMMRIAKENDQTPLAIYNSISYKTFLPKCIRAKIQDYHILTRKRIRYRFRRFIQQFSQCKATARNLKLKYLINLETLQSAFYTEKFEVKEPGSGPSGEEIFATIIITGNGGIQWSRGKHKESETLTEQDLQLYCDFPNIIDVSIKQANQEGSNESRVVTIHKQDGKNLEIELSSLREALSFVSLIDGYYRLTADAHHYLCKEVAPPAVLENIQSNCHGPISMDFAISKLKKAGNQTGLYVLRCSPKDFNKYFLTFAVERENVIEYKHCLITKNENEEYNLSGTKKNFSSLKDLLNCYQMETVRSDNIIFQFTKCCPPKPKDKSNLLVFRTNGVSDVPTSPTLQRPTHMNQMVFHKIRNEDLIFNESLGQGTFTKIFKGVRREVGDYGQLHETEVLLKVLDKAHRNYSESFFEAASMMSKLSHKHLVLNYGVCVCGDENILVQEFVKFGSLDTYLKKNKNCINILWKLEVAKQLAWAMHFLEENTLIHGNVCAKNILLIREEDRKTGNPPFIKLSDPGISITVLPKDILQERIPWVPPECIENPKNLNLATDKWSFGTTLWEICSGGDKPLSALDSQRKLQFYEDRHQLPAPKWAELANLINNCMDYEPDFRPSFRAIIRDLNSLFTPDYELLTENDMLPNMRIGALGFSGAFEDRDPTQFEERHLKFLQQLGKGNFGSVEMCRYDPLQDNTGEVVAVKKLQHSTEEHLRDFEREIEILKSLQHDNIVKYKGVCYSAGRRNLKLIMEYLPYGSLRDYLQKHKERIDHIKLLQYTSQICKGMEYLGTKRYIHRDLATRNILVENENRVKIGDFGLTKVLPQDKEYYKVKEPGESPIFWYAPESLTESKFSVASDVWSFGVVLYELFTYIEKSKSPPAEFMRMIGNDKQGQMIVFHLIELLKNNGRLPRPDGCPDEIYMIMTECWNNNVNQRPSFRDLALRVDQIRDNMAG
Summary of the method: as §1

[2] = system: MOLM-13 cells (FLT3-ITD-/+); assay: Inhibition of cell proliferation by MTT experiment, MOLM-13; assay type: cell-based, human; settings: Homo sapiens, MOLM-13; MTT, 72 h; read-out: IC50 value on cell proliferation inhibition, MOLM-13 FLT3-ITD-/+
Summary of the method: as §2

SET-2 cells (JAK2 V617F) = assay: Inhibition of cell proliferation by MTT experiment, SET-2; assay type: cell-based; settings: Homo sapiens, SET-2; MTT, 72 h; read-out: IC50 value on cell proliferation inhibition, SET-2 (V617F)
Summary of the method: as §2

JAK3 = molecular target: T4, JAK3 (Homo sapiens, UniProt P52333); assay: In vitro kinase activity experiment, JAK3; assay type: biochemical
T4 construct: purchased Eurofins
T4 sequence (P52333 1-1124): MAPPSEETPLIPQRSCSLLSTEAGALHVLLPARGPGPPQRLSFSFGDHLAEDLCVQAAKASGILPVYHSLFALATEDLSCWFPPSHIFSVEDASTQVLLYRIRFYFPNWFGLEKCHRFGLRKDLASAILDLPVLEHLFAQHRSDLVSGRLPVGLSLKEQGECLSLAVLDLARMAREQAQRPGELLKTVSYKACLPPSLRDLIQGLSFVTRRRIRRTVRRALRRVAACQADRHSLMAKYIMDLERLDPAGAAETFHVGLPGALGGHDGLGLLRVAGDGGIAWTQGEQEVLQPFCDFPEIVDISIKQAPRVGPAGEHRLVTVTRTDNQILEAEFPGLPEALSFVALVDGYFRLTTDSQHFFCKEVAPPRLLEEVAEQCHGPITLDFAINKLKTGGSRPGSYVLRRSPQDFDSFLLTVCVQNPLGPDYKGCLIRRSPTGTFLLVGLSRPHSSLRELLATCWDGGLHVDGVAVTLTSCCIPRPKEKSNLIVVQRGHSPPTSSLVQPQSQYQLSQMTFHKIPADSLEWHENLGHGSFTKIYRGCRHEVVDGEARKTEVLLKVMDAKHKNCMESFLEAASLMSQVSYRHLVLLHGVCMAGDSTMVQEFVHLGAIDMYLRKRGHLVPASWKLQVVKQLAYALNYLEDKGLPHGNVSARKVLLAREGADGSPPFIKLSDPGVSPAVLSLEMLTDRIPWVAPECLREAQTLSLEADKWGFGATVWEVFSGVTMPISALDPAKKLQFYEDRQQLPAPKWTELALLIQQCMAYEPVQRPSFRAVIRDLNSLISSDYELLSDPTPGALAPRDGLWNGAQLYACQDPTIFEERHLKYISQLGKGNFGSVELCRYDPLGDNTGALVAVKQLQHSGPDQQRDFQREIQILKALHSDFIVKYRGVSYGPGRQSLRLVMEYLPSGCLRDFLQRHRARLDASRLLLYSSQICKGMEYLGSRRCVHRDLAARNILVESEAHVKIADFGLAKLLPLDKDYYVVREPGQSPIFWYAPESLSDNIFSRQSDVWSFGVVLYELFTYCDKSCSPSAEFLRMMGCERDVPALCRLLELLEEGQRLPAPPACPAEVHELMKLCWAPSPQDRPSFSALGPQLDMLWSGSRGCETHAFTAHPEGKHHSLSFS
Method: as §3

JAK2V617F = assay: JAK2V617F-induced myelofibrosis mouse model; assay type: in vivo, BALB/c mice; settings: 30 mg/Kg, oral twice a day, after 8 weeks of treatment
From the text: JAK2 mutant JAK2V617F gene vector MSCV-JAK2V617F-GFP (Chengdu Wandao Biotechnology Development Co., Ltd.) and BALB/c mice (Jiangsu Jicui Yaokang Biotechnology Co., Ltd.) were provided as donors. The mouse bone marrow cells were sampled and infected with JAK2V617F virus, and the infected cells were reinfused into BALB/c recipient mice irradiated by X-rays through tail vein. Then, the JAK2V617F-positive myelofibrosis mouse model was induced. […] The administration route was oral administration twice a day, and the mice in the blank control group and the model group took the same volume of normal saline orally. […] Therefore, modifications or improvements made without departing from the spirit of the present invention are within the scope of protection of the present invention.

[3] = system: Ba/F3-EpoR-JAK2V617F cells; assay: Ba/F3-EpoR-JAK2V617F-driven malignant tumor mouse model; assay type: in vivo, Babl/c-nude mice; settings: 30 mg/Kg, oral twice a day
Method: Babl/c-nude mice (Beijing Huafukang Biotechnology Co., Ltd.) were received and acclimated to the environment until these mice were normalized in diet and activity, and the modeling began. Ba/F3-EpoR-JAK2V617F cells (State Key Laboratory of Biotherapy, Sichuan University) were routinely incubated and grew to 80% fusion degree. Then the cells were centrifuged at 1000 rpm for 3 min., collected, resuspended by PBS and counted by a cell counter; while the survival rate of the cells was calculated. Only when the proportion of living cells exceeds 90%, can the cells be used in the experiment, with the cell concentration adjusted to 1×10^7 cells/mL. After the cells were collected, the cell suspension was pre-cooled on ice. Each mouse was inoculated as per 1.0×10^6, and batch induction modeling was carried out.

| SMILES | IC50 (FLT3) | inhibition at 0.5 µM (FLT3) | IC50 [1] | IC50 (JAK1) | IC50 (JAK2) | Kinase activity @ 500 nM (%) JAK2 (JAK2) | IC50 [2] | IC50 (SET-2 cells (JAK2 V617F)) | IC50 (JAK3) | inhibition of growth rate of spleen (JAK2V617F) | inhibition of spleen growth [3] |
| --- | --- | --- | --- | --- | --- | --- | --- | --- | --- | --- | --- |
| Cc1cnc(Nc2ccc(N3CCC(N(C)C)CC3)c(F)c2)nc1-c1cnn(C(C)C)c1 [CLJ-38, 5-methyl-N-(3-fluoro-4-(4-dimethylaminopiperidine-1-yl)phenyl)-4-(1-isopropyl-1H-pyrazole-4-yl) pyrimidine-2-amine] | 9 nM | 72% | 10 to 100 nM | 58 nM | 2 nM | 93% | 100 to 1000 nM | 100 to 1000 nM | – | – | – |
| Cc1cnc(Nc2ccc(N3CCC(N(C)CC4CC4)CC3)c(F)c2)nc1-c1cnn(C(C)C)c1 [CLJ-52, 5-methyl-N-(3-fluoro-4-(4-N-cyclopropanemethyl-4-N-methylaminopiperidine-1-yl)phenyl)-4-(1-isopropyl-1H-pyrazole-4-yl) pyrimidine-2-amine] | 9 nM | 102% | 1 to 10 nM | 47 nM | 1 nM | 106% | 10 to 100 nM | 100 to 1000 nM | 23 nM | – | – |
| Cc1cnc(Nc2ccc(N3CCC(N(C)CCO)CC3)c(F)c2)nc1-c1cn(C(C)C)nc1S(C)(=O)=O [CLJ-91, 5-methyl-N-(3-fluoro-4-(4-N-hydroxyethyl-4-N-methylaminopiperidine-1-yl)phenyl)-4-(1-isopropyl-3-methylsulfonyl-1H-pyrazole-4-yl) pyrimidine-2-amine] | 11 nM | 97% | 10 to 100 nM | 121 nM | 3 nM | 100% | 10 to 100 nM | 100 to 1000 nM | 103 nM | – | – |
| Cc1cnc(Nc2ccc(NS(=O)(=O)c3ccc(C(F)(F)F)cc3)c(F)c2)nc1-c1cnn(C(C)C)c1 [CLJ-94, N-(2-fluoro-4-((4-(1-isopropyl-1H-pyrazole-4-yl)-5-methylpyrimidine-2-yl)amino)phenyl)-4-(trifluoromethyl) benzenesulfonamide] | 15 nM | 94% | 10 to 100 nM | 76 nM | 2 nM | 99% | 10 to 100 nM | 100 to 1000 nM | 39 nM | – | – |
| Cc1cnc(Nc2ccc(S(=O)(=O)NC3CC3)cc2)nc1-c1cnn(C(C)C)c1 [CLJ-99, N-cyclopropyl-4-((4-(1-isopropyl-1H-pyrazol-4-yl)-5-methylpyrimidine-2-yl)amino) benzenesulfonamide] | – | 97% | 10 to 100 nM | – | – | 100% | 10 to 100 nM | 100 to 1000 nM | – | – | – |
| Cc1cnc(Nc2ccc(OCCN3CCCC3)cc2)nc1Nc1cccc(S(=O)(=O)NC(C)(C)C)c1 [Fedratinib, reference compound] | – | – | – | – | – | – | – | – | – | 29.46% | 40.23% |
